{"source": "patent US20240407365A1", "about": "“Method for Treating Technical Products” (THOR GMBH, priority 2021, published 2024)", "test": "amount of CMIT remaining in water-based dispersion paint after storage, HPLC", "format": "physicochemical", "settings": "paint pH 8.3", "protocol": "The amounts of 5-chloro-2-methyl-4-isothiazolinone and zinc oxide specified in Table 1 were added to and homogeneously incorporated in aliquots of a commercially available, preservative-free, water-based matt interior dispersion paint (pH: 8.3; binder: ethylene vinyl acetate; pigment volume concentration (PVC): 77%). After 30 to 45 minutes, the sodium pyrithione was then added. The controls used were samples containing chloro-2-methyl-4-isothiazolinone and sodium pyrithione without zinc oxide and samples containing chloro-2-methyl-4-isothiazolinone only. The samples were stored at 21° C. and, after the time intervals specified in Table 1 (4 hours, 24 hours, 72 hours, 168 hours and 336 hours), the amount of chloro-2-methyl-4-isothiazolinone remaining in the paint was determined with the aid of HPLC analyses.", "key": {"[1]": {"settings": "NaPy 0 ppm, CMIT 25 ppm, ZnO 0 ppm"}, "[2]": {"settings": "NaPy 0 ppm, CMIT 50 ppm, ZnO 0 ppm"}, "[3]": {"settings": "NaPy 0 ppm, CMIT 100 ppm, ZnO 0 ppm"}, "[4]": {"settings": "NaPy 130 ppm, CMIT 25 ppm, ZnO 0 ppm"}, "[5]": {"settings": "NaPy 130 ppm, CMIT 25 ppm, ZnO 75 ppm"}, "[6]": {"settings": "NaPy 130 ppm, CMIT 25 ppm, ZnO 150 ppm"}, "[7]": {"settings": "NaPy 130 ppm, CMIT 25 ppm, ZnO 225 ppm"}, "[8]": {"settings": "NaPy 130 ppm, CMIT 25 ppm, ZnO 300 ppm"}, "[9]": {"settings": "NaPy 130 ppm, CMIT 25 ppm, ZnO 375 ppm"}, "[10]": {"settings": "NaPy 130 ppm, CMIT 25 ppm, ZnO 450 ppm"}, "[11]": {"settings": "NaPy 130 ppm, CMIT 25 ppm, ZnO 525 ppm"}, "[12]": {"settings": "NaPy 130 ppm, CMIT 50 ppm, ZnO 0 ppm"}, "[13]": {"settings": "NaPy 130 ppm, CMIT 50 ppm, ZnO 75 ppm"}, "[14]": {"settings": "NaPy 130 ppm, CMIT 50 ppm, ZnO 150 ppm"}}}
{"smiles": "Cn1sc(Cl)cc1=O", "note": "[CIMT, 5-chloro-2-methyl-4-isothiazolinone]", "values": [{"measurement": "CIMT [ppm] after storage at 21° C. 4 [h]", "setting": "[1]", "result": 25, "unit": "ppm"}, {"measurement": "CIMT [ppm] after storage at 21° C. 24 h", "setting": "[1]", "result": 25, "unit": "ppm"}, {"measurement": "CIMT [ppm] after storage at 21° C. 72 h", "setting": "[1]", "result": 24, "unit": "ppm"}, {"measurement": "CIMT [ppm] after storage at 21° C. 168 h", "setting": "[1]", "result": 24, "unit": "ppm"}, {"measurement": "CIMT [ppm] after storage at 21° C. 336 h", "setting": "[1]", "result": 22, "unit": "ppm"}, {"measurement": "CIMT [ppm] after storage at 21° C. 4 [h]", "setting": "[2]", "result": 50, "unit": "ppm"}, {"measurement": "CIMT [ppm] after storage at 21° C. 24 h", "setting": "[2]", "result": 50, "unit": "ppm"}, {"measurement": "CIMT [ppm] after storage at 21° C. 72 h", "setting": "[2]", "result": 49, "unit": "ppm"}, {"measurement": "CIMT [ppm] after storage at 21° C. 168 h", "setting": "[2]", "result": 47, "unit": "ppm"}, {"measurement": "CIMT [ppm] after storage at 21° C. 336 h", "setting": "[2]", "result": 47, "unit": "ppm"}, {"measurement": "CIMT [ppm] after storage at 21° C. 4 [h]", "setting": "[3]", "result": 101, "unit": "ppm"}, {"measurement": "CIMT [ppm] after storage at 21° C. 24 h", "setting": "[3]", "result": 100, "unit": "ppm"}, {"measurement": "CIMT [ppm] after storage at 21° C. 72 h", "setting": "[3]", "result": 101, "unit": "ppm"}, {"measurement": "CIMT [ppm] after storage at 21° C. 168 h", "setting": "[3]", "result": 99, "unit": "ppm"}, {"measurement": "CIMT [ppm] after storage at 21° C. 336 h", "setting": "[3]", "result": 95, "unit": "ppm"}, {"measurement": "CIMT [ppm] after storage at 21° C. 4 [h]", "setting": "[4]", "result": "<LOQ (below the limit of determination (<0.5 ppm CMIT))"}, {"measurement": "CIMT [ppm] after storage at 21° C. 24 h", "setting": "[4]", "result": "<LOQ (below the limit of determination (<0.5 ppm CMIT))"}, {"measurement": "CIMT [ppm] after storage at 21° C. 72 h", "setting": "[4]", "result": "<LOQ (below the limit of determination (<0.5 ppm CMIT))"}, {"measurement": "CIMT [ppm] after storage at 21° C. 168 h", "setting": "[4]", "result": "<LOQ (below the limit of determination (<0.5 ppm CMIT))"}, {"measurement": "CIMT [ppm] after storage at 21° C. 336 h", "setting": "[4]", "result": "<LOQ (below the limit of determination (<0.5 ppm CMIT))"}, {"measurement": "CIMT [ppm] after storage at 21° C. 4 [h]", "setting": "[5]", "result": 13, "unit": "ppm"}, {"measurement": "CIMT [ppm] after storage at 21° C. 24 h", "setting": "[5]", "result": 4, "unit": "ppm"}, {"measurement": "CIMT [ppm] after storage at 21° C. 72 h", "setting": "[5]", "result": 1, "unit": "ppm"}, {"measurement": "CIMT [ppm] after storage at 21° C. 168 h", "setting": "[5]", "result": "<LOQ (below the limit of determination (<0.5 ppm CMIT))"}, {"measurement": "CIMT [ppm] after storage at 21° C. 336 h", "setting": "[5]", "result": "<LOQ (below the limit of determination (<0.5 ppm CMIT))"}, {"measurement": "CIMT [ppm] after storage at 21° C. 4 [h]", "setting": "[6]", "result": 19, "unit": "ppm"}, {"measurement": "CIMT [ppm] after storage at 21° C. 24 h", "setting": "[6]", "result": 11, "unit": "ppm"}, {"measurement": "CIMT [ppm] after storage at 21° C. 72 h", "setting": "[6]", "result": 6, "unit": "ppm"}, {"measurement": "CIMT [ppm] after storage at 21° C. 168 h", "setting": "[6]", "result": 2, "unit": "ppm"}, {"measurement": "CIMT [ppm] after storage at 21° C. 336 h", "setting": "[6]", "result": "<LOQ (below the limit of determination (<0.5 ppm CMIT))"}, {"measurement": "CIMT [ppm] after storage at 21° C. 4 [h]", "setting": "[7]", "result": 23, "unit": "ppm"}, {"measurement": "CIMT [ppm] after storage at 21° C. 24 h", "setting": "[7]", "result": 17, "unit": "ppm"}, {"measurement": "CIMT [ppm] after storage at 21° C. 72 h", "setting": "[7]", "result": 11, "unit": "ppm"}, {"measurement": "CIMT [ppm] after storage at 21° C. 168 h", "setting": "[7]", "result": 7, "unit": "ppm"}, {"measurement": "CIMT [ppm] after storage at 21° C. 336 h", "setting": "[7]", "result": 2, "unit": "ppm"}, {"measurement": "CIMT [ppm] after storage at 21° C. 4 [h]", "setting": "[8]", "result": 24, "unit": "ppm"}, {"measurement": "CIMT [ppm] after storage at 21° C. 24 h", "setting": "[8]", "result": 21, "unit": "ppm"}, {"measurement": "CIMT [ppm] after storage at 21° C. 72 h", "setting": "[8]", "result": 14, "unit": "ppm"}, {"measurement": "CIMT [ppm] after storage at 21° C. 168 h", "setting": "[8]", "result": 12, "unit": "ppm"}, {"measurement": "CIMT [ppm] after storage at 21° C. 336 h", "setting": "[8]", "result": 6, "unit": "ppm"}, {"measurement": "CIMT [ppm] after storage at 21° C. 4 [h]", "setting": "[9]", "result": 25, "unit": "ppm"}, {"measurement": "CIMT [ppm] after storage at 21° C. 24 h", "setting": "[9]", "result": 22, "unit": "ppm"}, {"measurement": "CIMT [ppm] after storage at 21° C. 72 h", "setting": "[9]", "result": 20, "unit": "ppm"}, {"measurement": "CIMT [ppm] after storage at 21° C. 168 h", "setting": "[9]", "result": 15, "unit": "ppm"}, {"measurement": "CIMT [ppm] after storage at 21° C. 336 h", "setting": "[9]", "result": 10, "unit": "ppm"}, {"measurement": "CIMT [ppm] after storage at 21° C. 4 [h]", "setting": "[10]", "result": 26, "unit": "ppm"}, {"measurement": "CIMT [ppm] after storage at 21° C. 24 h", "setting": "[10]", "result": 22, "unit": "ppm"}, {"measurement": "CIMT [ppm] after storage at 21° C. 72 h", "setting": "[10]", "result": 22, "unit": "ppm"}, {"measurement": "CIMT [ppm] after storage at 21° C. 168 h", "setting": "[10]", "result": 19, "unit": "ppm"}, {"measurement": "CIMT [ppm] after storage at 21° C. 336 h", "setting": "[10]", "result": 12, "unit": "ppm"}, {"measurement": "CIMT [ppm] after storage at 21° C. 4 [h]", "setting": "[11]", "result": 24, "unit": "ppm"}, {"measurement": "CIMT [ppm] after storage at 21° C. 24 h", "setting": "[11]", "result": 21, "unit": "ppm"}, {"measurement": "CIMT [ppm] after storage at 21° C. 72 h", "setting": "[11]", "result": 21, "unit": "ppm"}, {"measurement": "CIMT [ppm] after storage at 21° C. 168 h", "setting": "[11]", "result": 18, "unit": "ppm"}, {"measurement": "CIMT [ppm] after storage at 21° C. 336 h", "setting": "[11]", "result": 14, "unit": "ppm"}, {"measurement": "CIMT [ppm] after storage at 21° C. 4 [h]", "setting": "[12]", "result": 3, "unit": "ppm"}, {"measurement": "CIMT [ppm] after storage at 21° C. 24 h", "setting": "[12]", "result": "<LOQ (below the limit of determination (<0.5 ppm CMIT))"}, {"measurement": "CIMT [ppm] after storage at 21° C. 72 h", "setting": "[12]", "result": "<LOQ (below the limit of determination (<0.5 ppm CMIT))"}, {"measurement": "CIMT [ppm] after storage at 21° C. 168 h", "setting": "[12]", "result": "<LOQ (below the limit of determination (<0.5 ppm CMIT))"}, {"measurement": "CIMT [ppm] after storage at 21° C. 336 h", "setting": "[12]", "result": "<LOQ (below the limit of determination (<0.5 ppm CMIT))"}, {"measurement": "CIMT [ppm] after storage at 21° C. 4 [h]", "setting": "[13]", "result": 21, "unit": "ppm"}, {"measurement": "CIMT [ppm] after storage at 21° C. 24 h", "setting": "[13]", "result": 9, "unit": "ppm"}, {"measurement": "CIMT [ppm] after storage at 21° C. 72 h", "setting": "[13]", "result": 2, "unit": "ppm"}, {"measurement": "CIMT [ppm] after storage at 21° C. 168 h", "setting": "[13]", "result": "<LOQ (below the limit of determination (<0.5 ppm CMIT))"}, {"measurement": "CIMT [ppm] after storage at 21° C. 336 h", "setting": "[13]", "result": "<LOQ (below the limit of determination (<0.5 ppm CMIT))"}, {"measurement": "CIMT [ppm] after storage at 21° C. 4 [h]", "setting": "[14]", "result": 31, "unit": "ppm"}, {"measurement": "CIMT [ppm] after storage at 21° C. 24 h", "setting": "[14]", "result": 19, "unit": "ppm"}]}
